Results taken from patent publication US11844844B2, “Fusion protein comprising glutathione-s-transferase and protein having binding affinity target cell or target protein, and use thereof” (UNIST(ULSAN NATIONAL INSTITUTE OF SCIENCE AND TECHNOLOGY), priority 2017, dated 2023).

Tested on: RAW 264.7 cells
Experiment: Cytotoxicity against macrophage, alamar blue
Assay type: cell-based
Conditions: CPT 0.01 to 2.5 μg/ml, 48 hr; PCSNs stored in 55% FBS 1 hr
Method: In detail, CPT-loaded HER2-PCSNs were prepared and stored in a high concentration of serum protein environment of 55% FBS for 1 hr. Thereafter, the stored HER2-PCSNs were collected and washed, and then treated to RAW 264.7 cells at a CPT concentration of 0.01 μg/ml, 0.1 μg/ml, 0.25 μg/ml, 0.5 μg/ml, 1.0 μg/ml, or 2.5 μg/ml, followed by incubation for 48 hr. After completing incubation, cell viability was examined using an alamar blue dye. As a control for comparison of the cell killing effect, RAW 264.7 cells were treated with free CPT which was not loaded in nanoparticles, and cell viability thereof was examined.

With `CC[C@@]1(O)C(=O)OCc2c1cc1n(c2=O)Cc2cc3ccccc3nc2-1` [free CPT, camptothecin] the “cell killing effect on macrophages (cell viability)” value was “exhibited the cell killing effect on RAW 264.7 cells with increasing treatment concentrations”.
